Assay results reported in patent US9062041B2 (Bayer Intellectual Property GmbH, priority 2011, dated 2015).
Like-named read-outs stand apart in the source and are kept apart here.

What was measured:
cumulus-oocyte complexes = assay: Cumulus expansion test in vitro; type: cell-based, mice (strain: B6D2F1); details: for inhibition at 1 µM / inhibition at 0.5 µM: Mus musculus, 0.3 μM PGE2 for stimulation; for inhibition at 1 µM: read-out: % reduction at 1 μM (reduction in the cumulus expansion); for inhibition at 0.5 µM: read-out: % reduction at 0.5 μm (reduction in the cumulus expansion)
Description: 4.2. Cumulus Expansions Test In Vitro In immature female mice (strain: B6D2F1 from Charles River), at an age of 14-18 days, the folliculogenesis was induced by a single administration (intraperitoneal) of 10 IU of PMSG (pregnant mare serum gonadotropin; Sigma G-4877, Lot 68H0909). 47-50 hours after the injection, the ovaries were removed and the cumulus-oocyte complexes removed. At this stage, the cumulus complex is not yet expanded. The cumulus-oocyte complexes were now incubated for 20-24 hours with prostaglandin E2 (PGE) (0.3 μM), vehicle control (ethanol) or test substances. Medium: alpha-MEM medium with 0.1 mM IBMX, pyruvate (0.23 mM), glutamine (2 mM), pen/strep 100 IU/ml pen. and 100 μg/ml strep.), HSA (8 mg/ml) and foetal bovine serum (FBS, 10%). The cumulus expansion was then established through the subdivision into four stages (after Vanderhyden et al. Dev Biol. 1990 August; 140(2):307-317).

[1] = Pharmacokinetic parameters after intravenous administration; type: in vivo, rat; details: for half-life: plasma
Description: 5. Determination of the Pharmacokinetic Parameters after Intravenous Administration
5.1. Intravenous Administration:
For this, the substances were administered in dissolved form, compatible solubilizers such as PEG400 and/or ethanol being used in tolerable quantity. The substances were administered at a dosage of 0.1-1 mg/kg. The administration was effected in the female rat as a bolus injection. Here, at various times after bolus injection ca. 100-150 μl blood samples were withdrawn from the jugular vein via a catheter. The blood samples were treated with lithium-heparin as anticoagulant and stored refrigerated until further work-up. After centrifugation of the samples for 15 mins at 3000 rpm, an aliquot of 100 μl was withdrawn from the supernatant (plasma) and precipitated by addition of 400 μl of cold acetonitrile or methanol (absolute). The precipitated samples were frozen overnight at −20° C., then centrifuged once again for 15 mins at 3000 rpm, before 150 μl of the clear supernatant was withdrawn for the concentration determination. The analysis was performed with an Agilent 1200 HPLC system with attached LCMS/MS detection.
5.2 Calculation of the PK Parameters
The calculation was performed by means of the PK calculation software WinNonLin®, where t1/2 means half-life within a specified interval (here: terminal t1/2, in hrs).

[2] = test system: ovulated cumulus-oocyte complexes; assay: In-vivo action on post-ovulatory in-vitro fertilization; parameters: species or system mice (strain: B6D2F1); details: mice
Text: 4.3 In-Vivo Action on Post-Ovulatory In-Vitro Fertilization: Substances can exert an influence on fertility by decreasing the fertilizability of oocytes or cumulus-oocyte complexes. In order to study such effects, substances can be administered in vivo and subjected to in vitro fertilization after ovulation of cumulus-oocyte complexes has taken place. The in-vitro fertilization rate, where no test substance is any longer present, allows conclusions as to the in-vivo effects of the test substances. Immature female mice (strain: B6D2F1, Charles River, Suelzfeld, age: 19-25 days) were kept in Macrolon cages in rooms with controlled illumination (12 hrs darkness: 12 hrs light), fed with a standard diet and provided with drinking water ad libitum. The mice were primed with PMSG (pregnant mare serum gonadotropin) (10 IU/animal i.p.). After 48 hours, a stimulus triggering ovulation was created in the animals by one administration of 10 IU/animal i.p. (hCG, human chorionic gonadotropin). The test substances were dissolved in benzyl benzoate/castor oil (1+4 v/v) and administered in a volume of 0.1 ml s.c. 1 hour before hCG (n=5 animals per group). Fourteen hours after hCG administration, the animals were killed. Ovulated oocytes and cumulus-oocyte complexes were obtained from the bursa ovarii and/or oviduct and subjected to in-vitro fertilization, wherein for the fertilization a sperm count of 40000 sperms/0.5 ml was used for 1 hour. Twenty-four hours after the incubation with the sperms, the number of fertilized oocytes is established and the percentage fertilization rate determined.

[3] = test system: female cynomolgus monkeys (Macaca Fascicularis); assay: In-vivo action on fertility in non-human primates (mating study); details: 6 months, 10 mg/kg (Example 17 once daily, Example 56 twice daily)
Description: 4.4 In-Vivo Action on Fertility in Non-Human Primates (Cynomolgus):
In order to study the effect of substances on fertility, mating studies can be performed in monkeys (Jensen et al. Contraception 81 (2010) 165-171). For this, the test substances are administered to female cynomolgus monkeys (Macaca Fascicularis) which are being kept in groups, then the animals are mated with a male animal. Matings are checked for by sperm detection in daily vaginal smears. Pregnancies resulting therefrom are identified by hormone determinations and ultrasound examinations. Through the changes in the serum oestradiol concentrations during the cycle, (rise before the midcycle LH peak), the fertile phase within a cycle of the individual animals can be determined Matings in this fertile period are described as “timed matings” (matings in the fertile phase). Apart from the absolute number of pregnancies occurring, the effect on the fertility can also be expressed as pregnancies per “timed matings”.
To test the action of EP2 receptor antagonists on fertility in monkeys, Examples 17 and 56 according to the invention were administered over 6 months, dissolved in 0.5 ml castor oil. Example 17 was administered once daily at a dosage of 10 mg/kg (n=10 animals), while Example 56 was administered twice daily at a dosage of 10 mg/kg (n=9 animals). Only the vehicle was administered to a control group (n=10 animals). In the first month of the treatment, no male animal was placed with the female animals. After this, female and male animals were kept together over 5 months, with detection of pregnancies and cycle monitoring.

[4] = after intravenous administration in the female rat, read-out: Terminal half-life t1/2 (converted)

half-life [1, 4]	Terminal half-life t1/2 ([1]; after intravenous administration in the female rat)	half-life ([1]; intravenous administration, female rat, read-out: terminal half-life t1/2 (converted))	SMILES	inhibition at 1 µM (cumulus-oocyte complexes)	inhibition at 0.5 µM (cumulus-oocyte complexes)	% fertilization with 1 mg/kg ([2]; 1 mg/kg s.c. 1 hour before hCG, in-vitro fertilization rate)	% fertilization with 5 mg/kg ([2]; 5 mg/kg s.c. 1 hour before hCG, in-vitro fertilization rate)	% fertilization with 10 mg/kg ([2]; 10 mg/kg s.c. 1 hour before hCG, in-vitro fertilization rate)	influence on the fertilizability of ovulated cumulus-oocyte complexes ([2]; in-vivo administration)	% Pregnancies/"timed mating" [3]	Pregnancies [3]	suppression of the cumulus expansion (cumulus-oocyte complexes; 0.5 μM, PGE2 0.3 μM)
2 h	–	–	COCCNC(=O)c1ccc2nn(CC3CN(C(=O)c4ccc(Cl)cc4)C3)cc2c1C [Example 117, 2-{[1-(4-chlorobenzoyl)azetidin-3-yl]methyl}-N-(2-methoxyethyl)-4-methyl-2H-indazol-5-carboxamide]	54%	30%	–	–	–	–	–	–	–
5.8 h	–	–	Cc1c(C(=O)NCC(F)(F)F)ccc2nn(CC3CCN(C(=O)c4ccc(Oc5ccc(F)cc5)cc4)CC3)cc12 [Example 283, 2-({1-[4-(4-fluorophenoxy)benzoyl]piperidin-4-yl}methyl)-4-methyl-N-(2,2,2-trifluoroethyl)-2H-indazol-5-carboxamide]	26%	25%	–	–	–	–	–	–	–
–	2.5 h	2.5 h	COCCNC(=O)c1ccc2nn(CC3CCN(C(=O)c4ccc(Oc5ccc(C(F)(F)F)cc5)cc4)CC3)cc2c1C [Example 17, N-(2-methoxyethyl)-4-methyl-2-[(1-{4-[4-(trifluoromethyl)-phenoxy]benzoyl}-piperidin-4-yl)-methyl]-2H-indazol-5-carboxamide]	76%	71%	20 ± 10%	9 ± 1%	8 ± 4%	dose-dependent influence	6%	3	ca. 70%
3.2 h	–	–	COCCNC(=O)c1ccc2nn(CC3CCN(C(=O)c4ccc(-c5ccc(F)cc5)cc4F)CC3)cc2c1C [Example 42, 2-({1-[(3,4′-difluoro-biphenyl-4-yl)-carbonyl]piperidin-4-yl}methyl)-N-(2-methoxyethyl)-4-methyl-2H-indazol-5-carboxamide]	79%	48%	–	–	–	–	–	–	–
